Test results published in patent publication US20240158418A1 (C4 Therapeutics, Inc., priority 2021, published 2024).

Test system: NCI-H1975 cells
Assay: Global proteomics (TMT), NCI-H1975
Format: cell-based, human
Protocol: Each cell line was treated in duplicate with either DMSO or Compound 1 (final concentration 300 nM) for 6 hours in an incubator at 37° C. with 5% CO2. After 6 hour incubation, cells were harvested, washed twice with PBS, and snap frozen in liquid nitrogen. Samples were re-suspended in lysis buffer [8 M urea, 50 mM HEPS (pH 8.5), 50 mM NaCl, 1× protease inhibitor cocktail] and lysed by sonication at 4° C. with 85% amplitude in a pulse setting with 30 seconds on and 30 seconds off for a total sonication time of 5 minutes. Lysates were centrifuged at maximum speed for 10 minutes at 4° C. and the supernatant collected, reduced for 1 hour at room temperature with 5 mM TCEP, and the cysteine residues were then alkylated with 15 mM iodoacetamide (room temperature, in dark, 30 minutes). Protein content was extracted by methanol-chloroform precipitation and subsequent ice-cold acetone washes. Protein pellets were resuspended in 8 M urea, 50 mM HEPES (pH 8.5) buffer and protein concentrations were measured by BCA assay. […]
6 μL of each sample was separated by reversed phase chromatography using an EASY-Spray C18 column (2 μm particle size, 500 mm length×75 μm ID) mounted in an EASY-nLC 1200 LC pump coupled to an Orbitrap Fusion Lumos Tribid mass spectrometer. […] TMT reporter ion intensities were quantified by extracting the signal-to-noise ratio for each. […]

O=C1CC[C@H](Nc2ccc(N3CCC(O)(CC(=O)N4CC5(C4)CN(c4ccc(-c6cc(F)c7c(c6)C(=O)N(C(C(=O)Nc6nccs6)c6ncn8c6CCC8)C7)cc4)C5)CC3)c(F)c2)C(=O)N1 (stereo partly drawn) [Compound 1, 2-(6,7-dihydro-5H-pyrrolo[1,2-c]imidazol-1-yl)-2-[6-[4-[2-[2-[1-[4-[[(3S)-2,6-dioxo-3-piperidyl]amino]-2-fluoro-phenyl]-4-hydroxy-4-piperidyl]acetyl]-2,6-diazaspiro[3.3]heptan-6-yl]phenyl]-4-fluoro-1-oxo-isoindolin-2-yl]-N-thiazol-2-yl-acetamide]
degradation selectivity for mutant EGFR-L858R over non-EGFR proteins: highly selective
